Among the data in patent US7589239B2, “Therapeutic agents for the treatment of cancer, metabolic diseases and skin disorders” (Auspex Pharmaceuticals, priority 2005, dated 2009) are fold induction values, retold here.

The assay addresses T1, human RAR-β (Homo sapiens, UniProt P10826).
T1 sequence (P10826 1-455): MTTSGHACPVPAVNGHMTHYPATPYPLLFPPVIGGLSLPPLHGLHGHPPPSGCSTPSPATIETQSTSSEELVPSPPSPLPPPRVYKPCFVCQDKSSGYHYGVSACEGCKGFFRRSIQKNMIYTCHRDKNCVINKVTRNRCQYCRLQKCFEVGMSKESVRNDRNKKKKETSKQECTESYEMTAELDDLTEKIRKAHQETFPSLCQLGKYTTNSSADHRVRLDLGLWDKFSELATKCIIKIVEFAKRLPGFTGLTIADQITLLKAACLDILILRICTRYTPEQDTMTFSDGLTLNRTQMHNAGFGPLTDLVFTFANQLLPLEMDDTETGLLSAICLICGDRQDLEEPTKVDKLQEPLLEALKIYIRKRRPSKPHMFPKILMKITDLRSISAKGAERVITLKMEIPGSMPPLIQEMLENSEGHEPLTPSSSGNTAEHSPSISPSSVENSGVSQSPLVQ
The assay can be described thus: Co-transfection assay (luciferase reporter induction in transfected COS-7 cells).

Method: The following assay is a measure of the in-vitro binding affinity of the given compound with human RAR-β in COS-7 cells. Binding of the compound to RAR-β will induce transcription of luciferase within the cells. This level of transcription can be quantified based on the amount of luminescence emitted after incubation of the cell lysate with luciferin.
COS-7 cells were cultured in Dulbecco Modified Eagle's Medium (DMEM) with 4 mM L-glutamine, 4.5 g/L glucose 1.5 g/L sodium bicarbonate and supplemented with 10% fetal bovine serum. Cells were transfected using the calcium phosphate:DNA co-precipitation method. A 10-cm plate of cells was transfected with 5 μg of luciferase reporter construct, 5 μg of expression vector for β-galactosidase, 1 μg of expression vector for RAR-β, and pUC19 as carrier, to a total of 20 μg.
β-galactosidase (5 μg) was included in each transfection to monitor transfection efficiency. Cells were incubated 6 hours at 37° C. in a CO2 incubator. The cells were re-suspended in fresh media containing 10% serum (96-well plate, 15000 cells per well) with or without compound (in 0.5% DMSO) and the plates were incubated at 37° C. in a CO2 incubator. Lysis buffer (1×) was added to cover the cells and the plates were incubated at ambient temperature for 15 min. Luciferase and β-galactosidase assays were performed 36 hours post-transfection, and the normalized luciferase response was determined as relative light units divided by β-galactosidase activity. Composition of 5× lysis buffer is 125 mM. Tris (pH 7.8) with H3PO4 10 mM trans-1,2 diaminocyclohexane-N,N,N′,N′-tetraaceticacid (CDTA), 10 mM dithiothereitol (DTT), 50% glycerol, 5% triton X-100.

Turning to `CC1=C(/C=C/C(C)=C/C=C/C(C)=C/C(=O)O)C(C)(C)CCC1` [ATRA, all-trans-retinoic acid, reference compound], the fold induction at 0.001 µM is 9.3, the fold induction at 0.03 µM worked out at 13.7 and the fold induction at 0.1 µM is 19.1.

`COc1ccc(-c2ccc3cc(B4OC(C)(C)C(C)(C)O4)ccc3c2)cc1C12CC3CC(CC(C3)C1)C2` [Example 9, 2-[6-(3-(1-Adamandyl)-4-methoxyphenyl)-naphthalen-2-yl]-4,4,5,5-tetramethyl[1,3,2]dioxaborolane] gave a fold induction at 3 µM of 2 and a fold induction at 40 µM of 6.

With `COc1ccc(-c2ccc3cc(B(O)O)ccc3c2)cc1C12CC3CC(CC(C3)C1)C2` [Example 10, 6-[-3-(1-Adamandyl)-4-methoxyphenyl)-2-naphthoboronic acid], the fold induction at 3 µM came to 2.1 and the fold induction at 10 µM worked out at 3.6.
